Entries after “also recorded” stand apart in the source; their conditions may differ.
What was measured:
Type in all cases: physicochemical
[1] = Solubility observation of Form III in solvents
Experimental: Form III of aticaprant (20 mg) was weighed into 3 HPLC vials. Each vial was treated with 10 vol (250 μL) of the relevant solvent at 25° C. and shaken. The sample in t-BuOH was placed at 90° C. for a few seconds, where a solution was obtained. The solutions were filtered using a 0.45 μm PTFE membrane Acrodisc filter, before being flash frozen in an acetone/dry ice bath for 5 minutes. The samples were then freeze-dried overnight. The resulting solids were characterized by XRPD.
[…] Form III of aticaprant (20 mg) was dispensed into amber HPLC vials (×49) with a magnetic stirrer bar. Each vial was treated with the relevant solvent (5 vol) at RT and stirred at 300 rpm for 10 mins. If suspensions were still observed, increasing volumes of the solvent were added until the material fully dissolved or until a maximum of 80 vol had been used (Table 20). All samples were heated to 50° C. and held for 1 hour. The samples were then cooled to 5° C. at a rate of 0.1° C./min and left to stir overnight. Any suspensions remaining at this point were subjected to maturation at RT/50° C. for 2 weeks.

[2] = Gravimetric vapor sorption (GVS)
Experimental: Sorption isotherms were obtained using a SMS DVS Intrinsic moisture sorption analyzer, controlled by DVS Intrinsic Control software. The sample temperature was maintained at 25° C. by the instrument controls. The humidity was controlled by mixing streams of dry and wet nitrogen, with a total flow rate of 200 mL/min. The relative humidity was measured by a calibrated Rotronic probe (dynamic range of 1.0-100% RH), located near the sample. The weight change, (mass relaxation) of the sample as a function of % RH was constantly monitored by a microbalance (accuracy ±0.005 mg).
Typically, 5-30 mg of sample was placed in a tared mesh stainless steel basket under ambient conditions. The sample was loaded and unloaded at 40% RH and 25° C. (typical room conditions). A moisture sorption isotherm was performed as outlined below (2 scans per complete cycle). The standard isotherm was performed at 25° C. at 10% RH intervals over a 0-90% RH range. Typically, a double cycle (4 scans) was carried out. Data analysis was carried out within Microsoft Excel using the DVS Analysis Suite. See, Table 15.
The sample was recovered after completion of the isotherm and re-analyzed by XRPD.

[3] = Competitive slurries of Forms I, II and III (thermodynamic stability)
Experimental: Competitive slurrying experiments were carried out with Form I, Form II and Form III to determine the relative order of stability. Slurrying experiments were carried out in six different solvent systems 5 and 50° C.
Saturated solutions of Form III were prepared in different solvent systems. See, Table 32. Each vial was filled with the relevant solvent (1.5 mL in each) and placed to equilibrate at the relevant temperature. After this time, small spatulas of the solid were added until the solid no longer dissolved. Samples were left to stir at 5° C. and 50° C. for ca. 2 weeks or longer as noted.
Form III (180 mg) and Form II (180 mg) were combined into a 4 mL vial. The sample was placed on a turbula blender for 30 mins, after which a small sample was taken and analyzed by XRPD to confirm a mixture. 10 mg of this mixture was weighed and a mixture of Form I and Form II was instead used as seeds in the competitive slurries. To each vial was added the mixture of Forms I and II (7 mg). See, Table 33.

[4] = Static storage at elevated temperature and humidity, form by XRPD; conditions: for form after static storage: (10 days), Form II prepared at 1 g scale; for form (XRPD) after static storage: 1 week
Experimental: After static storage of amorphous aticaprant at 40° C./75% RH for 1 week, Form II was obtained.
Fresh amorphous aticaprant was prepared for static storage at 40° C./75% RH for 1 week. Both solvents produced amorphous aticaprant. Tg was determined to be 45.5° C. by mDSC. See, Table 19 for the characterization of amorphous aticaprant.
Form I was obtained in the screens from ethyl acetate and MEK (both through solvent evaporation). It also was obtained from addition of heptane antisolvent to solutions in ethyl acetate and diethyl ether. The sample from the solubility assessment in ethyl acetate was isolated and characterized by XRPD, ^1H NMR, and DSC (FIG. 7), and static storage at elevated temperature and humidity.

Cc1cc(C)cc(C2CCCN2Cc2ccc(Oc3ccc(C(N)=O)cc3F)cc2)c1 (centres unmarked) [Form III]
solubility observation ([1]; 70% THF/H2O, 250 μL/10 vol, RT): Soluble, biphasic
solubility observation ([1]; t-BuOH at 90° C.): (soluble at 90° C.)
solubility observation ([1]; t-BuOH, 250 μL/10 vol, 25° C.): Insoluble
GVS hysteresis [2]: No hysteresis observed
XRPD / form after GVS [2]: XRPD unchanged after GVS
GVS max uptake ([2]; at 90% RH, 25° C.): 0.4% max uptake at 90% RH
relative stability among Forms I, II and III (in words) [3]: most stable form

Cc1cc(C)cc(C2CCCN2Cc2ccc(Oc3ccc(C(N)=O)cc3F)cc2)c1 (centres unmarked) [Form II]
GVS hysteresis [2]: slight hysteresis
XRPD / form after GVS [2]: XRPD post-GVS: Form II
hygroscopicity (in words) [2]: slightly hygroscopic; also recorded: Sample exhibits low hygroscopicity
stability after static storage at elevated temperature and humidity (in words) [4]: remained stable
form after static storage ([4]; 25° C./97% RH): Form II
form after static storage ([4]; 40° C./75% RH): Form II

Cc1cc(C)cc(C2CCCN2Cc2ccc(Oc3ccc(C(N)=O)cc3F)cc2)c1 (centres unmarked) [Form I]
stability after static storage at elevated temperature and humidity (in words) [4]: remains stable
form (XRPD) after static storage ([4]; 40° C./75% RH): Form I

Cc1cc(C)cc(C2CCCN2Cc2ccc(Oc3ccc(C(N)=O)cc3F)cc2)c1 (centres unmarked) [amorphous aticaprant]
form (XRPD) after static storage ([4]; 40° C./75% RH): Form II
form (XRPD) after static storage ([4]; 40° C./75% RH, listed as amorphous Aticaprant): Form II
